Data from article PMC8300687, “A Fine-Tuned Lipophilicity/Hydrophilicity Ratio Governs Antibacterial Potency and Selectivity of Bifurcated Halogen Bond-Forming NBTIs” (Antibiotics, 2021).
Values after ≈ are worked out from the molar mass of the structure shown. Read-outs that look alike come from different tables or passages of the source.

Columns and labels:
[1] = tested on: C. jejuni RDK 135 (ATCC 33560); assay: MIC broth microdilution, C. jejuni; assay type: cell-based; conditions: Campylobacter jejuni, ATCC33560; read-out: MIC C. jejuni RDK 135 (ATCC 33560)
Method: (§1) Antimicrobial testing was carried out by the broth microdilution method in 96-well plate format following the Clinical and Laboratory Standards Institute (CLSI) guidelines and European Committee on Antimicrobial Susceptibility Testing (EUCAST) recommendations. Bacterial suspension of specific bacterial strain equivalent to 0.5 McFarland turbidity standard was diluted with cation-adjusted Mueller Hinton broth with TES (Thermo Fisher Diagnostic, Landsmeer, The Netherlands), to obtain a final inoculum of 10^5 CFU/mL. Compounds dissolved in DMSO and inoculum were mixed together and incubated for 18–20 h at 35 °C. Suspensions of Mycobacterium sp. were prepared into a tube of Middelbrook 7H9 broth supplemented with 5% OADC (Thermo Scientific, Trek Diagnostic Systems, West Sussex, UK) and incubated for at least 10 days. After incubation the minimal inhibitory concentration (MIC) values were determined by visual inspection as the lowest dilution of compounds showing no turbidity. Tetracycline was used as a positive control on every assay plate.

E. coli (QA-11.3) = assay: MIC broth microdilution, E. coli QA-11.3; assay type: cell-based; conditions: Escherichia coli, 20 h; read-out: MIC E. coli (QA-11.3)
Method: as §1

E. coli D22 = assay: MIC broth microdilution, E. coli D22; assay type: cell-based; conditions: Escherichia coli
Method: as §1

E. coli (QA-11.7) = assay: MIC broth microdilution, E. coli QA-11.7; assay type: cell-based; conditions: Escherichia coli, 20 h; multi-resistant isolate (ampicillin, azithromycin, cefotaxime, ertapenem, imipenem and others); read-out: MIC E. coli (QA-11.7)
Method: as §1

MRSA (QA-11.7) = assay: MIC broth microdilution, MRSA QA-11.7; assay type: cell-based, methicillin-resistant S. aureus; conditions: Staphylococcus aureus, 20 h, read-out: MIC MRSA (QA-11.7)
Method: as §1

Human topoisomerase IIα = target: T1, Human topoisomerase IIα (Homo sapiens, UniProt P11388); assay: Human topoisomerase II Alpha Relaxation High Throughput Plate assay; assay type: biochemical; conditions: 0.5 h; residual activity of the enzyme at compound concentration 10 μM, mean ± SD; read-out: Human Topo II (% RA)
T1 construct: purchased Inspiralis (Norwich, UK)
Method: A Human topoisomerase II Alpha Relaxation High Throughput Plate assay kit, purchased from Inspiralis (Norwich, UK) was used to evaluate the selectivity of compounds for the bacterial enzymes over the homologous human topoisomerase II. […] Biotinylated oligonucleotide in wash buffer was immobilized onto the wells and the excess oligonucleotide was washed off with wash buffer. […] The reactions were stopped by adding the TF buffer (50 mM NaOAc (pH 4.7), 50 mM NaCl, and 50 mM MgCl2) to allow the triplex formation (biotin-oligonucleotide-plasmid) for additional 30 min. Afterward, the unbound plasmid was washed off using TF buffer, and the solution of Promega Diamond dye in T10 buffer (10 mM Tris-HCl (pH 8.0), 1 mM EDTA) was added. […] Screening was performed at inhibitor concentrations of 10 μM. Raw data were converted to mean ± SD percentage of residual activity of the enzyme obtained by two independent measurements.

[2] = tested on: A. baumannii 8C6 (GES-14); assay: MIC broth microdilution, A. baumannii; assay type: cell-based; conditions: Acinetobacter baumannii; read-out: MIC A. baumannii 8C6 (GES-14)
Method: as §1

S. aureus (ATCC 29213) = assay: MIC broth microdilution, S. aureus ATCC 29213; assay type: cell-based
Method: as §1

M. smegmatis = assay: MIC, M. smegmatis; assay type: cell-based, Mycobacterium smegmatis
Method: as §1

E. coli DNA gyrase = target: T2, E. coli DNA gyrase (Escherichia coli, UniProt P0AES4); assay: Gyrase Supercoiling High Throughput Plate assay, E. coli; assay type: biochemical; conditions: for LE DNA Gyrase E. coli: LE = (1.37/HA) × pIC50
T2 construct: purchased Inspiralis (Norwich, UK)
Method: A Gyrase Supercoiling High Throughput Plate assay kit, purchased from Inspiralis (Norwich. UK) was used to determine IC50 values of compounds on S. aureus and E. coli. […] Biotinylated oligonucleotide in wash buffer was immobilized onto the wells, and the excess oligonucleotide was washed off with wash buffer and ultrapure water. […] The reactions were stopped by adding the TF buffer (50 mM NaOAc (pH 4.7), 50 mM NaCl, and 50 mM MgCl2) to allow the triplex formation (biotin-oligonucleotide-plasmid) for additional 30 min. Afterward, the unbound plasmid was washed off using TF buffer, and the solution of Promega Diamond dye in T10 buffer (10 mM Tris-HCl (pH 8.0), 1 mM EDTA) was added. […] IC50 value represents the mean of two to four independent measurements.

[3] = Equilibrium solubility at pH 6.8; conditions: phosphate buffered saline, 37 °C, pH 6.8, aqueous buffer, thermodynamic from solid
Method: Prior to the measurements of solubility and permeability isocratic HPLC methods were developed. […] The individual method parameters for each compound are given in the Supplementary Materials Table S1.
The vials were then placed in a homogenizer (Next Advance Bullet Blender, Troy, NY, USA) for 5 min ad speed setting “2” after which they were kept in a thermostated shaker (Tehtnica HeatMix, Domel, Slovenia) at 37 °C and 1200 RPM for 24 h. […] Twenty µL of these solutions were injected for the HPLC analysis by the described methods (Supplementary Materials Table S1). External standards for calibration were made in a mobile phase with 5% acetonitrile in a range of 30–90 mg/L and injected at 20 µL injection volumes.

MRSA (QA-11.6) = assay: MIC broth microdilution, MRSA QA-11.6; assay type: cell-based, methicillin-resistant S. aureus; conditions: Staphylococcus aureus, resistant to cefoxitin, gentamicin, sulfamethoxazole, tetracycline, read-out: MIC MRSA (QA-11.6)
Method: as §1

MRSA (QA-11.2) = assay: MIC broth microdilution, MRSA QA-11.2; assay type: cell-based, methicillin-resistant S. aureus; conditions: Staphylococcus aureus, 20 h, read-out: MIC MRSA (QA-11.2)
Method: as §1

MRSA = assay: MIC broth microdilution, MRSA; assay type: cell-based, methicillin-resistant S. aureus; conditions: Staphylococcus aureus, read-out: MIC MRSA
Method: as §1

[4] = D22, mutation in the lpxC gene that increases membrane permeability, read-out: MIC E. coli D22
[5] = Staphylococcus aureus, ATCC29213; S. aureus ATCC 29213; read-out: S. aureus MIC (converted)
[6] = Staphylococcus aureus, ATCC29213; read-out: MIC S. aureus (ATCC 29213)
[7] = Mycolicibacterium smegmatis; read-out: MIC M. smegmatis
[8] = resistant to cefoxitin, chloramphenicol, clindamycin, linezolid, tetracycline, thiamulin, trimethoprim

T2 sequence (P0AES4 whole entry): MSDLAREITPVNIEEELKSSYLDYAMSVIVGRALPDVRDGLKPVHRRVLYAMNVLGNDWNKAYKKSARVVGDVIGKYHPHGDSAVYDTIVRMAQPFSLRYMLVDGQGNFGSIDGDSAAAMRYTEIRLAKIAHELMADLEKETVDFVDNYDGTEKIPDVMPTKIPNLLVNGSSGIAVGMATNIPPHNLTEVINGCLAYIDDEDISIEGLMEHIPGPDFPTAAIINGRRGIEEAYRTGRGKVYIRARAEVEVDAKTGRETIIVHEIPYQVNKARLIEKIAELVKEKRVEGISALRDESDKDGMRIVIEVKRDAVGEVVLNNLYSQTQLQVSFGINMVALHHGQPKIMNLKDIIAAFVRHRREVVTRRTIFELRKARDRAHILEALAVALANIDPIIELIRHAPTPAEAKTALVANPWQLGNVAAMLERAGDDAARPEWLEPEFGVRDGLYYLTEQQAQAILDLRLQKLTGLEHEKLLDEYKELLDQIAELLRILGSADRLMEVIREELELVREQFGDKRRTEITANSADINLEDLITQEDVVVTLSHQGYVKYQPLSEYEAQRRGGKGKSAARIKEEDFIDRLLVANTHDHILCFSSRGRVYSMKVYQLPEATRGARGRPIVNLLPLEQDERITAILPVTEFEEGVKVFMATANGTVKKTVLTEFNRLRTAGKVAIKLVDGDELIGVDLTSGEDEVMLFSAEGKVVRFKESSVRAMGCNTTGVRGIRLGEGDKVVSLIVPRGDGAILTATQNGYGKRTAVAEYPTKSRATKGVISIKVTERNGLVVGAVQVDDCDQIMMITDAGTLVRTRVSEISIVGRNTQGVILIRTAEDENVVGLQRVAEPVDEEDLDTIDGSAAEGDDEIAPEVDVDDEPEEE
T1 sequence (P11388 whole entry): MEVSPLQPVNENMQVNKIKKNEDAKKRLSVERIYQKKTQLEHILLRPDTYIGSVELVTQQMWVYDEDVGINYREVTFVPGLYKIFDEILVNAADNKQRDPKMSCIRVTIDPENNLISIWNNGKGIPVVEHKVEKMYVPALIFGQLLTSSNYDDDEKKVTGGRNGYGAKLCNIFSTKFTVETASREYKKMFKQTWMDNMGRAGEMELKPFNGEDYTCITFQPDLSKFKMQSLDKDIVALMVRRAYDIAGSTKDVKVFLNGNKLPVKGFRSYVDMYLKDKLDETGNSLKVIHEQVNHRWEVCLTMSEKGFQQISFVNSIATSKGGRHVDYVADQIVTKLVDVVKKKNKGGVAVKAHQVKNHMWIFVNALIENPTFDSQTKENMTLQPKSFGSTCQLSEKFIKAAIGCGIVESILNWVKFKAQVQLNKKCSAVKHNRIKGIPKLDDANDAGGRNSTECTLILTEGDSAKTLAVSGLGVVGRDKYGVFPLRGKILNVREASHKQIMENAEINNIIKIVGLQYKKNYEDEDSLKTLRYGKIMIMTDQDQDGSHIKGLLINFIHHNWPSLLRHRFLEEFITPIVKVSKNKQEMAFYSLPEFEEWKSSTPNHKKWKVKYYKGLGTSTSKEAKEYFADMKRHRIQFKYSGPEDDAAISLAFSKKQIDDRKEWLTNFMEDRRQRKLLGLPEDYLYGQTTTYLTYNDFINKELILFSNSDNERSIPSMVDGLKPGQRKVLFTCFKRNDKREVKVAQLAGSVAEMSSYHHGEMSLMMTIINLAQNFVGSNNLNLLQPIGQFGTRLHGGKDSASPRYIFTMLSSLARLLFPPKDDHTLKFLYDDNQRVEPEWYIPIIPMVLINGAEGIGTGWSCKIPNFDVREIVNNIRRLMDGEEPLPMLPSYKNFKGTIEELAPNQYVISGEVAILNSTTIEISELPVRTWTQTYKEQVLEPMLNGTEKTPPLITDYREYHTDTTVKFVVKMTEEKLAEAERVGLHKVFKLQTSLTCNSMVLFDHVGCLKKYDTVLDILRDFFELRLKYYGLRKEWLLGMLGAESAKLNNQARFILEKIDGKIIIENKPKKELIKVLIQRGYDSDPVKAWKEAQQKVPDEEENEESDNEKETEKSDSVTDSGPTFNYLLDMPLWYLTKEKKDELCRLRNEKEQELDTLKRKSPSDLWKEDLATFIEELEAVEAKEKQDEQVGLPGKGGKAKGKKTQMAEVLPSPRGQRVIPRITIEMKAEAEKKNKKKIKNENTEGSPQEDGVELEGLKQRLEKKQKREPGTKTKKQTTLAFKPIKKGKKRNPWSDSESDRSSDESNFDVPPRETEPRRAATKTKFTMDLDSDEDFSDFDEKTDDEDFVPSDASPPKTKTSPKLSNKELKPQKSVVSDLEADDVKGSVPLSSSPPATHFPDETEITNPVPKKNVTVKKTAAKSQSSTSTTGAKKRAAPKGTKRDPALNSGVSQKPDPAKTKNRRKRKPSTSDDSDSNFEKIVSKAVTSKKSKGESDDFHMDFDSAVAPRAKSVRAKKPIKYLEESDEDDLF

Row | SMILES | MIC [1] [µg/mL] | MIC (E. coli (QA-11.3)) [µg/mL] | MIC (E. coli D22; [4]) [µg/mL] | MIC (E. coli (QA-11.7)) [µg/mL] | MIC (MRSA (QA-11.7)) [µg/mL] | remaining activity at 10 µM (Human topoisomerase IIα) [%] | MIC [2] [µg/mL] | MIC (S. aureus (ATCC 29213); [5]) [µM] | MIC (S. aureus (ATCC 29213); [6]) [µg/mL] | MIC (M. smegmatis; [7]) [µg/mL] | IC50 (E. coli DNA gyrase) [µM] | solubility thermodynamic at 24 h [3] [µg/mL] | MIC (MRSA (QA-11.6)) [µg/mL] | MIC (MRSA (QA-11.2); [8]) [µg/mL] | MIC (MRSA) [µg/mL] | LE DNA Gyrase E. coli (E. coli DNA gyrase) | other results
1 | COc1ccc2nccc(CCN3CCC(NCc4nc5ccccc5n4C)CC3)c2n1 [Compound 3, 1-(2-(6-Methoxy-1,5-naphthyridin-4-yl)ethyl)-N-((1-methyl-1H-benzo[d]imidazol-2-yl)methyl)piperidin-4-amine] | 1 (≈ 2.32 µM) | 128 (≈ 297 µM) | > 128 | 64 (≈ 149 µM) | 8 (≈ 18.6 µM) | 94.7 ± 4.82 | > 128 | 2.32 | 1 | 4 (≈ 9.29 µM) | > 100 | 349 (≈ 811 µM) | 2 (≈ 4.65 µM) | 4 (≈ 9.29 µM) | 2 (≈ 4.65 µM) |  | 
2 | COc1ccc2nccc(CCN3CCC(NCc4cnn(-c5ccc(F)cc5)c4)CC3)c2n1 [Compound 4, N-((1-(4-Fluorophenyl)-1H-pyrazol-4-yl)methyl)-1-(2-(6-methoxy-1,5-naphthyridin-4-yl)ethyl)piperidin-4-amine] | 128 (≈ 278 µM) | 8 (≈ 17.4 µM) | 16 (≈ 34.7 µM) | 16 (≈ 34.7 µM) | 2 (≈ 4.34 µM) | 88.41 ± 0.15 | 32 (≈ 69.5 µM) | 4.34 | 2 | ≤ 1 | 13.3 ± 2.84 | 585 (≈ 1270 µM) | 4 (≈ 8.69 µM) | 8 (≈ 17.4 µM) | 2 (≈ 4.34 µM) | 0.20 | 
3 | COc1ccc2nccc(CCN3CCC(NCc4cnn(-c5ccccc5)c4)CC3)c2n1 [Compound 5, 1-(2-(6-Methoxy-1,5-naphthyridin-4-yl)ethyl)-N-((1-phenyl-1H-pyrazol-4-yl)methyl)piperidin-4-amine] | 16 (≈ 36.2 µM) | 2 (≈ 4.52 µM) | 1 (≈ 2.26 µM) | 2 (≈ 4.52 µM) | 0.5 (≈ 1.13 µM) | 82.1 ± 2.52 | 4 (≈ 9.04 µM) | 0.57 | 0.25 | 0.25 (≈ 0.565 µM) | 3 ± 0.55 | 381 (≈ 861 µM) | 1 (≈ 2.26 µM) | 1 (≈ 2.26 µM) | 0.5 (≈ 1.13 µM) | 0.23 | increase in potency on E. coli DNA gyrase (E. coli DNA gyrase; vs most potent compound from previous study [18]): Approximately 4 fold
4 | COc1ccc2nccc(CCN3CCC(NCc4ccc(Cl)cc4)CC3)c2n1 [Compound 13] | 2 (≈ 4.87 µM) | 2 (≈ 4.87 µM) | 2 (≈ 4.87 µM) | 1 (≈ 2.43 µM) | 0.5 (≈ 1.22 µM) | 102 ± 0.84 | 4 (≈ 9.73 µM) | 0.3 |  | 0.25 (≈ 0.608 µM) |  | 119 (≈ 290 µM) | 0.25 (≈ 0.608 µM) | 0.25 (≈ 0.608 µM) | 0.25 (≈ 0.608 µM) |  | MIC (S. aureus (ATCC 29213); Staphylococcus aureus, ATCC29213, read-out: MIC S. aureus (ATCC 29213)): 0.125 µg/mL
5 | COc1ccc2nccc(CCN3CCC(NCc4ccc(Br)cc4)CC3)c2n1 [Compound 14] | 0.5 (≈ 1.1 µM) | 1 (≈ 2.2 µM) |  | 1 (≈ 2.2 µM) | 0.0625 (≈ 0.137 µM) | 98.2 ± 2.72 | 1 (≈ 2.2 µM) | 0.07 | 0.031 |  |  | 72 (≈ 158 µM) | 0.0625 (≈ 0.137 µM) |  | 0.062 (≈ 0.136 µM) |  | MIC (E. coli D22; D22, read-out: MIC E. coli D22): 0.125 µg/mL (≈ 0.274 µM); MIC (M. smegmatis; Mycolicibacterium smegmatis, read-out: MIC M. smegmatis): 0.125 µg/mL (≈ 0.274 µM); MIC (MRSA (QA-11.2)): 0.125 µg/mL (≈ 0.274 µM)
6 | COc1ccc2nccc(CCN3CCC(NCc4ccc(I)cc4)CC3)c2n1 [Compound 15] | 0.015 (≈ 0.0299 µM) | 1 (≈ 1.99 µM) |  | 1 (≈ 1.99 µM) | 0.0078 (≈ 0.0155 µM) | 88.3 ± 3.33 | 0.25 (≈ 0.498 µM) |  | 0.0078 | 0.015 (≈ 0.0299 µM) |  | 184 (≈ 366 µM) | 0.0312 (≈ 0.0622 µM) | 0.0312 (≈ 0.0622 µM) | 0.0078 (≈ 0.0155 µM) |  | MIC (E. coli D22; D22, read-out: MIC E. coli D22): 0.125 µg/mL (≈ 0.249 µM); S. aureus MIC in molar (S. aureus (ATCC 29213); S. aureus ATCC 29213): 0.016 µM; MIC (S. aureus (ATCC 29213); Staphylococcus aureus, ATCC29213, 20 h; S. aureus ATCC 29213; read-out: S. aureus MIC (converted)): 0.01 µM
7 | COc1ccc2nccc(CCN3CCC(NCc4ccc(N(C)C)cc4)CC3)c2n1 [Compound 18] | 4 (≈ 9.53 µM) | 8 (≈ 19.1 µM) | 8 (≈ 19.1 µM) | 4 (≈ 9.53 µM) | 0.5 (≈ 1.19 µM) | 94.2 ± 1.33 | 8 (≈ 19.1 µM) | 0.31 |  | 4 (≈ 9.53 µM) | 11.9 ± 0.83 | 537 (≈ 1280 µM) | 0.25 (≈ 0.596 µM) | 0.5 (≈ 1.19 µM) |  | 0.22 | 
